Experimental data reported in article PMC5584945, “Evaluation of robenidine analog NCL195 as a novel broad-spectrum antibacterial agent” (PLoS ONE, 2017).
In brackets after ≈: the same amount, converted by molar mass. Read-outs that look alike come from different tables or passages of the source.

How the values were obtained:
S. aureus = experiment: MIC, broth micro-dilution (CLSI); assay type: cell-based, Staphylococcus aureus; conditions: Staphylococcus aureus; for MIC50 / MIC90: S2 Table isolates
S. pneumoniae D39 = experiment: Minimum bactericidal concentration (MBC); assay type: cell-based; conditions: Streptococcus pneumoniae, 99.9% colony count reduction, read-out: MBC
[1] = Kinetic solubility by nephelometry; assay type: physicochemical; conditions: kinetic from dmso stock
Caco-2 = experiment: In vitro cytotoxicity, WST-1; assay type: cell-based; conditions: Homo sapiens, 24 h exposure, read-out: IC50 values ± SEM
Text: (§1) In order to ensure minimal off target mammalian cell cytotoxicity, we assayed NCL812, NCL195 and NCL219 for in vitro cytotoxicity using a panel of adherent mammalian cell lines: Caco-2 (human colorectal adenocarcinoma cell line), HEL 299 (non-cancerous human lung fibroblast cell line), Hep G2 (human hepatocellular carcinoma cell line), MDBK (normal bovine kidney cell line) and MCF7 (human mammary gland adenocarcinoma cell line). Cell lines were maintained in Dulbecco’s Modified Eagle’s Medium (DMEM; […] After 24 h incubation, media was removed, washed once with medium without antibiotics and fresh medium supplemented with 10% (vol/vol) FBS was added. […] Following exposure for 24 h, WST-1 reagent was added to each well at a final concentration of 10%. […] The IC50 value for each compound against each cell line was determined via non-linear regression (three parameters) using GraphPad Prism v6 software. The robustness of assays was confirmed with selected cell lines (Hep G2 and MDBK) seeded onto a 96–well Microwell Nunclon Delta Surface plate (Thermo Scientific Nunc; Cat No: 136101) at 5 × 10^4 cells per well.

HEL 299 = experiment: In vitro cytotoxicity, WST-1; assay type: cell-based; conditions: Homo sapiens, 24 h exposure, read-out: IC50 values ± SEM
Text: as §1

Hep G2 [2] = experiment: In vitro cytotoxicity, WST-1; assay type: cell-based; conditions: Homo sapiens, HepG2; 24 h exposure; read-out: IC50 values ± SEM
Text: as §1

MCF7 = experiment: In vitro cytotoxicity, WST-1; assay type: cell-based; conditions: Homo sapiens, 24 h exposure, read-out: IC50 values ± SEM
Text: as §1

MDBK = experiment: In vitro cytotoxicity, WST-1; assay type: cell-based, bovine; conditions: Bos taurus, 24 h exposure, read-out: IC50 values ± SEM
Text: as §1

Hep G2 [3] = experiment: Real-time cell viability, RealTime-Glo MT; assay type: cell-based, human; conditions: 2 or 8 μg/ml, up to 20 h post-treatment

Work on `C/C(=N\NC(=N)N/N=C(\C)c1ccc(C(C)(C)C)cc1)c1ccc(C(C)(C)C)cc1` [NCL219, (E)-N'-((E)-1-(4-(tert-butyl)phenyl)ethylidene)-2-(1-(4-(tert-butyl)phenyl)ethylidene)hydrazine-1-carboximidhydrazide] yielded an MIC (S. aureus; ATCC 29213 / MSSA, ATCC29213 MSSA (ST5), 10% FBS, read-out: MIC) of 8 µg/mL (≈ 19.7 µM), an MIC (S. aureus; ATCC 29213 / MSSA, ATCC29213 MSSA (ST5), absence of FBS, read-out: MIC) of 16 µg/mL (≈ 39.4 µM) and an MIC (S. aureus; ATCC 49775 / MSSA, ATCC 49775 (MSSA), 10% FBS, read-out: MIC) of 4 µg/mL (≈ 9.86 µM). The MIC (S. aureus; ATCC 49775 / MSSA, ATCC 49775 (MSSA), absence of FBS, read-out: MIC) was 32 µg/mL (≈ 78.9 µM), the MIC (S. aureus; IRISH 1 – HA-EMRSA (ST8), 10% FBS, read-out: MIC) was greater than 64 µg/mL and the MIC (S. aureus; IRISH 1 – HA-EMRSA (ST8), absence of FBS, read-out: MIC) was greater than 64 µg/mL. It also gave an MIC (S. aureus; IRISH 2 – HA-EMRSA (ST8), 10% FBS, read-out: MIC) of 8 µg/mL (≈ 19.7 µM), an MIC (S. aureus; IRISH 2 – HA-EMRSA (ST8), absence of FBS, read-out: MIC) of 32 µg/mL (≈ 78.9 µM) and an MIC (S. aureus; MRSA / USA300, USA 300 - MRSA (ST8), 10% FBS, read-out: MIC) of 4 µg/mL (≈ 9.86 µM). The MIC (S. aureus; MRSA / USA300, USA 300 - MRSA (ST8), absence of FBS, read-out: MIC) was greater than 64 µg/mL, the MIC (S. aureus; MRSA, AUS2-MRSA (ST239), 10% FBS, read-out: MIC) was 8 µg/mL (≈ 19.7 µM) and the MIC (S. aureus; MRSA, AUS2-MRSA (ST239), absence of FBS, read-out: MIC) was greater than 64 µg/mL. The MIC (S. aureus; MRSA, AUS3-MRSA (ST239), 10% FBS, read-out: MIC) was 8 µg/mL (≈ 19.7 µM), the MIC (S. aureus; MRSA, AUS3-MRSA (ST239), absence of FBS, read-out: MIC) was 64 µg/mL (≈ 158 µM) and the MIC (S. aureus; MRSA, BENGAL BAY PVL+ – CA-MRSA (ST772), absence of FBS) was 16 µg/mL (≈ 39.4 µM). For the same compound, the MIC (S. aureus; MRSA, Classic–HA-MRSA (ST250), 10% FBS, read-out: MIC) was 32 µg/mL (≈ 78.9 µM), the MIC (S. aureus; MRSA, Classic–HA-MRSA (ST250), absence of FBS, read-out: MIC) was 32 µg/mL (≈ 78.9 µM) and the MIC (S. aureus; MRSA, NY JAPAN – HA MRSA (ST5), 10% FBS, read-out: MIC) was 4 µg/mL (≈ 9.86 µM). It also gave an MIC (S. aureus; MRSA, NY JAPAN – HA MRSA (ST5), absence of FBS, read-out: MIC) greater than 64 µg/mL, an MIC (S. aureus; MRSA, ST398–CA-MRSA-V (ST398), 10% FBS, read-out: MIC) greater than 64 µg/mL and an MIC (S. aureus; MRSA, ST398–CA-MRSA-V (ST398), absence of FBS, read-out: MIC) greater than 64 µg/mL. For the same compound, the MIC (S. aureus; MRSA, WA2–CA-MRSA (ST78), absence of FBS, read-out: MIC) was greater than 64 µg/mL, the MIC (S. aureus; MRSA, WA3–CA-MRSA (ST5), absence of FBS, read-out: MIC) was greater than 64 µg/mL and the MIC (S. aureus; MRSA, WA84–CA-MRSA (ST45), 10% FBS, read-out: MIC) was 8 µg/mL (≈ 19.7 µM). The MIC (S. aureus; MRSA, WA84–CA-MRSA (ST45), absence of FBS, read-out: MIC) was greater than 64 µg/mL, the MIC50 (S. aureus; 10% FBS) was 8 µg/mL (≈ 19.7 µM) and the MIC90 (S. aureus; 10% FBS) was greater than 64 µg/mL. The MIC50 (S. aureus; absence of FBS) was 64 µg/mL (≈ 158 µM), the MIC90 (S. aureus; absence of FBS) was greater than 64 µg/mL and the MIC (S. aureus; TAIWAN PVL+ – CA-cMRSA (ST59), 10% FBS, read-out: MIC) was 32 µg/mL (≈ 78.9 µM). It also gave an MIC (S. aureus; TAIWAN PVL+ – CA-cMRSA (ST59), absence of FBS, read-out: MIC) greater than 64 µg/mL, an MIC (S. aureus; UK 15 PVL+ – HA-EMRSA (ST22), 10% FBS, read-out: MIC) of 4 µg/mL (≈ 9.86 µM) and an MIC (S. aureus; UK 15 PVL+ – HA-EMRSA (ST22), absence of FBS, read-out: MIC) of 32 µg/mL (≈ 78.9 µM). It also gave an MIC (S. aureus; UK 15 – HA-EMRSA (ST22), 10% FBS, read-out: MIC) of 8 µg/mL (≈ 19.7 µM), an MIC (S. aureus; UK 15 – HA-EMRSA (ST22), absence of FBS, read-out: MIC) of 64 µg/mL (≈ 158 µM) and an MIC (S. aureus; UK 16 – HA- EMRSA (ST36), 10% FBS, read-out: MIC) of 4 µg/mL (≈ 9.86 µM). It also gave an MIC (S. aureus; UK 16 – HA- EMRSA (ST36), absence of FBS, read-out: MIC) of 32 µg/mL (≈ 78.9 µM), an MIC (S. aureus; UK 17 – HA-EMRSA (ST247), 10% FBS, read-out: MIC) of 16 µg/mL (≈ 39.4 µM) and an MIC (S. aureus; UK 17 – HA-EMRSA (ST247), absence of FBS, read-out: MIC) of 64 µg/mL (≈ 158 µM). The MBC (S. pneumoniae D39) was 4 µg/mL (≈ 9.86 µM), the solubility ([1]; pH 2.0) was 0.78 to 1.6 µg/mL (≈ 1.92 to 3.94 µM) and the solubility ([1]; pH 6.5) was 0.78 to 1.6 µg/mL (≈ 1.92 to 3.94 µM). For the same compound, the IC50 (Caco-2) was 7.5 ± 0.1 µg/mL (≈ 18.5 µM), the IC50 (HEL 299) was 21.2 ± 0.2 µg/mL (≈ 52.3 µM) and the IC50 (Hep G2 [2]) was 7.1 ± 0.1 µg/mL (≈ 17.5 µM). For the same compound, the IC50 (MCF7) was greater than 128 µg/mL, the IC50 (MDBK) was 16 ± 0.2 µg/mL (≈ 39.4 µM) and the “Effect on cell viability (real-time)” value (Hep G2 [3]) was “had a demonstrable effect on viability at 2 μg/ml”.
